This note sets out measurements from US20260015363A1, “SUBSTITUTED PYRIMIDINE-FUSED RING INHIBITOR, METHOD FOR PREPARING SAME, AND USE THEREOF” (Suzhou Zelgen Biopharmaceuticals Co., Ltd., priority 2022, published 2026).

One may read the IC50 as the midpoint of a concentration-inhibition curve. Low readings indicate inhibition by little substance, high ones a need for much substance.

For one experiment, the system named is PSN-1 (G12R). Description: KRAS mutant cell proliferation inhibition assay (CellTiter-Glo 3D), PSN-1. It is filed as cell-based. The note with it: Homo sapiens, PSN1, 168 h, PSN-1 (G12R) cells, 7 days. As to the method:
(§1) Positive control: MRTX1133
(§2) • (a) The cells were thawed in T75 cell culture flasks: • (b) When 80%-90% cell confluence was achieved, the cells were passaged.
(§3) The diluted test compound was added to a 384-well cell culture plate using a nanoliter pipetting system, and replicate wells were set. An equal volume of medium was added to the positive control group; an equal volume of DMSO was added to the negative control group. The plate was centrifuged at 1000 rpm at room temperature for 1 min.
(§4) The cells were seeded into a) 384-well culture plate. An equal volume of cells was added to the negative control group, and only an equal volume of medium was added to the positive control group. The plate was centrifuged at 1000 rpm at room temperature for 1 min. The final DMSO concentration in the final compound was 0.5%. The plate was incubated in a thermostatic incubator at 37° C. with 5% CO2 for 7 days.
(§5) CellTiter-Glo® 3D was added to b) 384-well cell culture plate at 20 μL/well. The plate was shaken at 320 rpm in the dark for 20 min, and incubated at room temperature in the dark for 2 h. The luminescence values were read using an Envision multi-mode microplate reader.
(§6) The inhibition rates (IRs) of the test compounds were calculated according to the following formula: IR (%)=(1−(RLU compound−RLU blank control)/(RLU vehicle control−RLU blank control))×100%. The inhibition rates of the compounds at different concentrations were calculated in Excel, and then inhibition curves were plotted and relevant parameters including minimum inhibition rate, maximum inhibition rate and IC50 were calculated using GraphPad Prism software.
On the technique in general: In ATP-based viability assays light output follows the ATP content of the culture.

For the next experiment, the system named is H727 (G12V). Description: KRAS mutant cell proliferation inhibition assay (CellTiter-Glo 3D), H727. The note with it: Homo sapiens, NCI-H727, 168 h, H727 (G12V) cells, 7 days. The experiment is classed as cell-based, human. On the procedure: as §1, §2, §3, §4, §5, §6
A further experiment has as its system SW480 (G12V). As to the kind of experiment: KRAS mutant cell proliferation inhibition assay (CellTiter-Glo 3D), SW480. The note with it: Homo sapiens, 168 h, SW480 (G12V) cells, 7 days. The experiment is classed as cell-based. On the procedure:
as §1, §2, §3, §4, §5, §6

For another experiment, the system named is AsPC-1 (G12D). Description: KRAS mutant cell proliferation inhibition assay (CellTiter-Glo 3D), AsPC-1. It is filed as cell-based, human. The note with it: Homo sapiens, ASPC1, 168 h, AsPC-1 (G12D) cells, 7 days.
The test system of a further experiment is MNK1 (WT). Description: Cell proliferation inhibition assay (CellTiter-Glo 3D), MNK1. It is filed as cell-based, human. To be noted: Homo sapiens, 168 h, MNK1 (WT) cells, 7 days. As to the method:
as §1, §2, §3, §4, §5, §6

In the case of `CCc1c(F)ccc2cc(O)cc(-c3ncc4c(N5CCCC6(CCO6)C5)nc(OC[C@@]56CCCN5C[C@@]5(CC5(F)F)C6)nc4c3F)c12` (stereo partly drawn) [Example A-16, 4-(2-(((1S,7a'S)-2,2-Difluorodihydro-1′H,3′H-spiro[cyclopropane-1,2′-pyrrolizin]-7a′ (5′H)-yl)methoxy)-8-fluoro-4-(1-oxa-6-azaspiro[3.5]nonan-6-yl)pyrido[4,3-d]pyrimidin-7-yl)-5-ethyl-6-fluoronaphthalen-2-ol], the IC50 turned out to be 1000 nM in the experiment with PSN-1 (G12R); 45.1 nM in the experiment on H727 (G12V); 68.2 nM in the experiment with SW480 (G12V); 11.4 nM in the experiment with AsPC-1 (G12D); 22.7 nM with MNK1 (WT).

`CN(C)C(=O)c1cc2n(n1)CCCN(c1nc(OC[C@@]34CCCN3C[C@@]3(CC3(F)F)C4)nc3c(F)c(-c4cc(N)cc(Cl)c4C(F)(F)F)ncc13)C2` [Example A-25, 5-(7-(5-Amino-3-chloro-2-(trifluoromethyl)phenyl)-2-(((1S,7a'S)-2,2-difluorodihydro-1′H,3′H-spiro[cyclopropane-1,2′-pyrrolizin]-7a′ (5′H)-yl)methoxy)-8-fluoropyrido[4,3-d]pyrimidin-4-yl)-N,N-dimethyl-5,6,7,8-tetrahydro-4H-pyrazolo[1,5-a][1,4]diazepine-2-carboxamide]: the half-maximal inhibitory concentration (IC50) was more than 10000 nM in the experiment on PSN-1 (G12R), 141 nM in the experiment on H727 (G12V), 33.6 nM with AsPC-1 (G12D) and 66.3 nM in the experiment with MNK1 (WT).

In the case of `CCc1c(F)ccc2cc(O)cc(-c3ncc4c(N5CCC[C@@]6(C5)NC(=O)NC6=O)nc(OC[C@@]56CCCN5C[C@@]5(CC5(F)F)C6)nc4c3F)c12` [Example A-26, (S)-7-(2-(((1S,7a'S)-2,2-Difluorodihydro-1′H,3′H-spiro[cyclopropane-1,2′-pyrrolizin]-7a′ (5′H)-yl)methoxy)-7-(8-ethyl-7-fluoro-3-hydroxynaphthalen-1-yl)-8-fluoropyrido[4,3-d]pyrimidin-4-yl)-1,3,7-triazaspiro[4.5]decane-2,4-dione], the IC50 is more than 10000 nM in the experiment with PSN-1 (G12R), 7370 nM in the experiment on H727 (G12V), more than 1000 nM in the experiment on AsPC-1 (G12D) and 1620 nM in the experiment on MNK1 (WT).

With `CCc1c(F)ccc2cc(O)cc(-c3ncc4c(N5CCC[C@]6(C5)NC(=O)NC6=O)nc(OC[C@@]56CCCN5C[C@@]5(CC5(F)F)C6)nc4c3F)c12` [Example A-27, (R)-7-(2-(((1S,7a'S)-2,2-Difluorodihydro-1′H,3′H-spiro[cyclopropane-1,2′-pyrrolizin]-7a′ (5′H)-yl)methoxy)-7-(8-ethyl-7-fluoro-3-hydroxynaphthalen-1-yl)-8-fluoropyrido[4,3-d]pyrimidin-4-yl)-1,3,7-triazaspiro[4.5]decane-2,4-dione], the half-maximal inhibitory concentration (IC50) is 79.7 nM in the experiment on PSN-1 (G12R), 35.9 nM with H727 (G12V), 23.2 nM in the experiment on AsPC-1 (G12D) and 5.35 nM in the experiment on MNK1 (WT).

With `CCc1c(F)ccc2cc(O)cc(-c3ncc4c(N5CCOCC(C)(O)C5)nc(OC[C@@]56CCCN5C[C@@]5(CC5(F)F)C6)nc4c3F)c12` (stereo partly drawn) [Example A-38, 4-(2-(((1S,7a'S)-2,2-Difluorodihydro-1′H,3′H-spiro[cyclopropane-1,2′-pyrrolizin]-7a′ (5′H)-yl)methoxy)-7-(8-ethyl-7-fluoro-3-hydroxynaphthalen-1-yl)-8-fluoropyrido[4,3-d]pyrimidin-4-yl)-6-methyl-1.4-oxazenan-6-ol], the IC50 is more than 10000 nM in the experiment with PSN-1 (G12R), 119 nM in the experiment with H727 (G12V), 31.6 nM with AsPC-1 (G12D) and 21.4 nM in the experiment with MNK1 (WT).

For `CC1(O)COCCN(c2nc(OC[C@@]34CCCN3C[C@@]3(CC3(F)F)C4)nc3c(F)c(-c4cc(N)cc(Cl)c4C(F)(F)F)ncc23)C1` (stereo partly drawn) [Example A-39, 4-(7-(5-Amino-3-chloro-2-(trifluoromethyl)phenyl)-2-(((1S,7a'S)-2,2-difluorodihydro-1′H,3′H-spiro[cyclopropane-1,2′-pyrrolizin]-7a′ (5′H)-yl)methoxy)-8-fluoropyrido[4,3-d]pyrimidin-4-yl)-6-methyl-1.4-oxazenan-6-ol], the IC50 in the experiment on PSN-1 (G12R) is more than 10000 nM; in the experiment on H727 (G12V), 604 nM; in the experiment with AsPC-1 (G12D) it was 293 nM; with MNK1 (WT) it was 273 nM.

As for `CCc1c(F)ccc2cc(O)cc(N3CCc4c(nc(OC[C@@]56CCCN5C[C@@]5(CC5(F)F)C6)nc4N4CCCn5nc(C(=O)N(C)C)cc5C4)C3)c12` [Example B-13, 5-(2-(((1S,7a'S)-2,2-Difluorodihydro-1′H,3′H-spiro[cyclopropane-1,2′-pyrrolizin]-7a′ (5′H)-yl)methoxy)-7-(8-ethyl-7-fluoro-3-hydroxynaphthalen-1-yl)-5,6,7,8-tetrahydropyrido[3,4-d]pyrimidin-4-yl)-N,N-dimethyl-5,6,7,8-tetrahydro-4H-pyrazolo[1,5-a][1,4]diazepine-2-carboxamide], the concentration for half-maximal inhibition (IC50) is 2350 nM with PSN-1 (G12R), 47.3 nM in the experiment on H727 (G12V), 8.98 nM in the experiment on AsPC-1 (G12D) and 24.3 nM in the experiment with MNK1 (WT).

Turning to `C#Cc1c(F)ccc2cc(O)cc(-c3ncc4c(N5CC6CCC(C5)N6)nc(OC[C@@]56CCCN5C[C@H](F)C6)nc4c3F)c12` [MRTX1133, reference compound], the IC50 in the experiment with PSN-1 (G12R) was more than 10000 nM; with H727 (G12V), 2270 nM; with SW480 (G12V) it was 432 nM; in the experiment with AsPC-1 (G12D) it was 10.1 nM; in the experiment on MNK1 (WT) it was 319 nM.
